Laboratory results: patent US20240301408A1, “MICRORNA 195 COMPOSITIONS AND METHODS FOR TREATING COGNITIVE IMPAIRMENT” (UNITED STATES GOVERNMENT AS REPRESENTED BY THE DEPARTMENT …, priority 2021, published 2024)

Assays:
ApoE4+/+ FAD mice = assay: novel object recognition (NOR) after hippocampal AAV2 injection, ApoE KI mice with 5xFAD background (EFAD); assay type: in vivo, mouse; details: male ApoE4+/+ FAD mice
Text: Animal models. Human ApoE4^+/+ or ApoE3^+/+ knock-in (KI) mouse models without (Grootendorst J et al., Behavioural brain research 2005, Rodriguez G A et al., Learn Mem 2013, and Wang C et al., Neurobiology of disease 2005) or with 5×FAD background (Balu D et al., Neurosci Lett 2019, and Tai L M et al., J Lipid Res 2017) were genotyped (Zhong L et al., Mol Neurodegener 2016). Sex as a biological variable was taken into considerations with inclusion of both male and female mice in the experiments.
Stereotaxic injection and behavior studies. Eight to nine weeks old male and female ApoE3^+/+ and ApoE4^+/+ KI mice without 5×FAD background (N=19-23/group), or with 5×FAD background (N=15-17/group) were placed in the stereotaxic apparatus with AAV2 or scramble virus administered into the dorsal CA1 regions of bilateral hippocampal brain regions using pressure injection (Labonte B et al., Nat Med 2017, and Passini M A et al., The Journal of neuroscience 2006). Injection volumes (0.5-2.0 μl) were delivered over 10 min to avoid tissue damage. Six to nine months after viral delivery, mice were tested with the NOR task (Zhu L et al., Proc Natl Acad Sci USA 2015, Elder G A et al., J Neurotrauma 2012, and Howlett D R et al., Brain Res 2004). Mice were randomized for genotype and sex, and blinded throughout the behavior data collection and analysis, surgical manipulations, and sample collection.

phospho-Tau (pTau) = assay: brain pTau levels in ApoE KI mice after miR-195 over-expression; assay type: in vivo, mouse
Procedure: (§1) Stereotaxic injection and behavior studies. Eight to nine weeks old male and female ApoE3^+/+ and ApoE4^+/+ KI mice without 5×FAD background (N=19-23/group), or with 5×FAD background (N=15-17/group) were placed in the stereotaxic apparatus with AAV2 or scramble virus administered into the dorsal CA1 regions of bilateral hippocampal brain regions using pressure injection (Labonte B et al., Nat Med 2017, and Passini M A et al., The Journal of neuroscience 2006). Injection volumes (0.5-2.0 μl) were delivered over 10 min to avoid tissue damage. […]
(§2) Brain and neuronal sample preparation and biochemical analysis. […] Levels of Aβ42, Aβ40, pTau, Tau and ApoE were determined using high-sensitive ELISA kits. […]
(§3) Statistical analysis. […] Levels of miR-195-5p and miR-374 were normalized to U6 and RNU6B (internal controls) while synj1 mRNA normalized to GAPDH and 18s, and then expressed as Log2fold of changes when compared to controls. Levels of synj1, dyn1, pTau, Tau, and holoAPP were normalized to β-actin levels and expressed as a percentage of the control. Absolute Aβ42, Aβ40, pTau, Tau, and ApoE concentrations were quantitatively determined by ELISA and expressed as a percentage of the control. […] Pearson correlation coefficients were calculated to determine the linear relationship between the two variables. […]

holo-APP or BACE-1 = assay: brain holo-APP and BACE-1 levels in EFAD mice after miR-195-5p over-expression; assay type: in vivo; details: EFAD mouse brains
Procedure: as §1, §2, §3

UAGCAGCACAGAAAUAUUGGC (chemistry not given here) [miR-195-5p, over-expressed via AAV2-containing miR-195-5p from ABM Inc]
NOR preference index (ApoE4+/+ FAD mice; scramble controls 37.8%): 63.1%
NOR discrimination index (ApoE4+/+ FAD mice; scramble controls -0.245): 0.262
pTau levels (phospho-Tau (pTau); ApoE3+/+ mice): Trends of reduction
brain phospho-Tau (pTau) levels (phospho-Tau (pTau); ApoE4+/+ KI mouse hippocampus, scramble controls 81.3): 39.1 % of controls
holo-APP or BACE-1 levels (holo-APP or BACE-1): no significant changes
